According to patent US20240150293A1, “SPIROCYCLOHEXANE DERIVATIVES, PHARMACEUTICAL COMPOSITIONS CONTAINING THEM AND THEIR USES AS ANTI-APOPTOTIC INHIBITORS” (LES LABORATOIRES SERVIER, priority 2021, published 2024):
Where two headings read alike, the source gives them in different places.

Assays:
[1] = target: Cy5-labelled Mcl1 (amino acids 171-321) C286S protein (UniProtKB Q07820) (Homo sapiens (Human), UniProt Q07820, C286S); experiment: Inhibition of Mcl-1 by the fluorescence quenching assay (Example A, Method B); type: binding
Cy5-labelled Mcl1 (amino acids 171-321) C286S protein, sequence (Q07820 171-321 C286S): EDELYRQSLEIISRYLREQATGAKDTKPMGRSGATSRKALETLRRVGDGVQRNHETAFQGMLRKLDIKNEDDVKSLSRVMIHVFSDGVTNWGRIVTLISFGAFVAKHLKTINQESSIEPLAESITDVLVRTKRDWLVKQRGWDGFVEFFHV
Procedure, shortened: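 Cy5-labelled Mcl1 171-321 C286S (1 nM) quenched by TQ5WS-labelled PUMA peptide (10, 20 or 400 nM); displacement raises fluorescence (Ex 620/Em 680 nm). Buffer 10 mM HEPES, 150 mM NaCl, 0.05% Tween 20, pH 7.4, 5% DMSO; 2 h at room temperature, 11-point curves, IC50 converted to Ki (cKi/eKi).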

[2] = test system: H929 multiple myeloma tumor line; experiment: In vitro cytotoxicity, MTT assay (Example B, Method A); type: cell-based; conditions: H929 cells, 48 hours exposure, read-out: C50
Experimental: The cytotoxicity studies were carried out on the H929 multiple myeloma tumor line.
The cells are distributed onto microplates and exposed to the test compounds for 48 hours. The cell viability is then quantified by a colorimetric assay, the Microculture Tetrazolium Assay (Carmichael et al, Cancer Res. 1987, 47, 939-942).
The results are expressed in C50 which means concentration corresponding to […] of effect/inhibition.

Row | Ki [1] [nM] | Ki ([1]; Ki determined from IC50) [nM] | SMILES | IC50 ([2]; Homo sapiens, NCI-H929, 48 h) [nM] | IC50 [2] [nM]
1 | 0.423 |  | C[C@@H](COc1ccnc2c1[C@H](C)CCC2)C[C@@H]1Cc2cc(Cl)ccc2[C@]12CC[C@@](Nc1cccc(Cl)c1)(C(=O)O)CC2 [Example 779, (1r,2′R,4R)-5′-chloro-4-(3-chloroanilino)-2′-[(2R)-2-methyl-3-{[(5R)-5-methyl-5,6,7,8-tetrahydroquinolin-4-yl]oxy}propyl]-2′,3′-dihydrospiro[cyclohexane-1,1′-indene]-4-carboxylic acid] | 143 | 
2 | 26.8 |  | CC1CCN(C)c2nccc(OC[C@H](C)C[C@H]3Cc4ccccc4[C@]34CC[C@@](Nc3cccc(Cl)c3)(C(=O)O)CC4)c21 (single isomer, unassigned) [Example 643] | 1230 | 
3 | 0.374 |  | CC(O)c1ccc2c(c1)[C@]1(CC[C@@](Nc3cccc(Cl)c3)(C(=O)O)CC1)[C@@H](C[C@@H](C)COc1ccnc3c1[C@H](C)CC[C@H]3F)C2 (single isomer, unassigned) [Example 864] |  | 183
4 | 0.356 |  | C[C@@H](COc1ccnc2c1[C@H](C)CCC2)CC1Cc2c(Cl)c(F)ccc2[C@]12CC[C@@](Nc1cccc(Cl)c1)(C(=O)O)CC2 (single isomer, unassigned) [Example 746] |  | 25.4
5 | 1.01 |  | CC(=O)c1cc(C)c2c(c1)[C@]1(CC[C@@](Nc3cccc(Cl)c3)(C(=O)O)CC1)C(C[C@@H](C)COc1ccnc3c1[C@H](C)CCC3)=C2 [Example 756, (1r,4R)-6′-acetyl-4-(3-chloroanilino)-4′-methyl-2′-[(2R)-2-methyl-3-{[(5R)-5-methyl-5,6,7,8-tetrahydroquinolin-4-yl]oxy}propyl]spiro[cyclohexane-1,1′-indene]-4-carboxylic acid] | 62 | 
6 | 34.2 |  | C[C@@H](COc1ccnc2c1[C@@H](C)CC[C@H]2C)C[C@H]1Cc2ccccc2[C@]12CC[C@@](Nc1cccc(Cl)c1)(C(=O)O)CC2 (single isomer, unassigned) [Example 658, (1r,2′S,4S)-4-(3-chloroanilino)-2′-[(2R)-3-{[(5R*,8S*)-5,8-dimethyl-5,6,7,8-tetrahydroquinolin-4-yl]oxy}-2-methylpropyl]-2′,3′-dihydrospiro[cyclohexane-1,1′-indene]-4-carboxylic acid] | 879 | 
7 | 4.04 |  | C[C@@H](COc1ccnc2c1CCCC2)C[C@H]1Cc2ccccc2[C@]12CC[C@@](Nc1cccc(Cl)c1)(C(=O)O)CC2 [Example 645, (1r,4R)-4-(3-chloroanilino)-2′-{(2R)-2-methyl-3-[(5,6,7,8-tetrahydroquinolin-4-yl)oxy]propyl}-2′,3′-dihydrospiro[cyclohexane-1,1′-indene]-4-carboxylic acid] | 617 | 
8 | 2.44 |  | CO[C@@H]1CCCc2nccc(OC[C@H](C)C[C@H]3Cc4ccccc4[C@]34CC[C@@](Nc3cccc(Cl)c3)(C(=O)O)CC4)c21 [Example 672, (1r,2′S,4S)-4-(3-chloroanilino)-2′-[(2R)-3-{[(5R)-5-methoxy-5,6,7,8-tetrahydroquinolin-4-yl]oxy}-2-methylpropyl]-2′,3′-dihydrospiro[cyclohexane-1,1′-indene]-4-carboxylic acid] | 391 | 
9 | 5.09 |  | C[C@@H](COc1ccnc2c1[C@H](C)C(F)(F)CC2)C[C@H]1Cc2ccccc2[C@]12CC[C@@](Nc1cccc(Cl)c1)(C(=O)O)CC2 [Example 700, (1r,2′S,4S)-4-(3-chloroanilino)-2′-[(2R)-3-{[(5S)-6,6-difluoro-5-methyl-5,6,7,8-tetrahydroquinolin-4-yl]oxy}-2-methylpropyl]-2′,3′-dihydrospiro[cyclohexane-1,1′-indene]-4-carboxylic acid] | 330 | 
10 | 0.901 |  | C[C@@H](COc1ccnc2c1[C@H](C)CCC2)C[C@H]1Cc2ccccc2[C@]12CC[C@@](Nc1cccc(Cl)c1F)(C(=O)O)CC2 [Example 706, (1r,2′S,4S)-4-(3-chloro-2-fluoroanilino)-2′-[(2R)-2-methyl-3-{[(5R)-5-methyl-5,6,7,8-tetrahydroquinolin-4-yl]oxy}propyl]-2′,3′-dihydrospiro[cyclohexane-1,1′-indene]-4-carboxylic acid] | 93.9 | 
11 | 7.36 |  | C[C@@H](CNc1ccnc2ccsc12)C[C@H]1Cc2ccccc2[C@]12CC[C@@](Nc1cccc(Cl)c1)(C(=O)O)CC2 [Example 627, (1r,2′S,4S)-4-(3-chloroanilino)-2′-{(2R)-2-methyl-3-[(thieno[3,2-b]pyridin-7-yl)amino]propyl}-2′,3′-dihydrospiro[cyclohexane-1,1′-indene]-4-carboxylic acid] | 1330 | 
12 | 4.25 |  | C[C@@H](COc1ccnc2c1[C@@H](C)CC[C@H]2F)C[C@H]1Cc2ccccc2[C@]12CC[C@@](Nc1cccc(Cl)c1)(C(=O)O)CC2 [Example 687, (1r,2′S,4S)-4-(3-chloroanilino)-2′-[(2R)-3-{[(5R,8S)-8-fluoro-5-methyl-5,6,7,8-tetrahydroquinolin-4-yl]oxy}-2-methylpropyl]-2′,3′-dihydrospiro[cyclohexane-1,1′-indene]-4-carboxylic acid] | 600 | 

The remaining lines, values behind:

Row | SMILES | Ki [1] [nM] | Ki ([1]; Ki determined from IC50) [nM] | IC50 ([2]; Homo sapiens, NCI-H929, 48 h) [nM] | IC50 [2] [nM]
13 | C[C@@H](COc1ccnc2ccn(C)c12)C[C@H]1Cc2ccccc2[C@]12CC[C@@](Nc1cccc(Cl)c1)(C(=O)O)CC2 [Example 619, (1r,2′S,4S)-4-(3-chloroanilino)-2′-{(2R)-2-methyl-3-[(1-methyl-1H-pyrrolo[3,2-b]pyridin-7-yl)oxy]propyl}-2′,3′-dihydrospiro[cyclohexane-1,1′-indene]-4-carboxylic acid] | 9.28 |  | 1360 | 
14 | CC(C)c1cnccc1OC[C@H](C)C[C@H]1Cc2ccccc2[C@]12CC[C@@](Nc1cccc(Cl)c1)(C(=O)O)CC2 [Example 587, (1r,2′S,4S)-4-(3-chloroanilino)-2′-[(2R)-2-methyl-3-{[3-(propan-2-yl)pyridin-4-yl]oxy}propyl]-2′,3′-dihydrospiro[cyclohexane-1,1′-indene]-4-carboxylic acid] | 3.93 |  | 679 | 
15 | C[C@@H](COc1ccnc2c1CC(C)(C)C2)C[C@H]1Cc2ccccc2[C@]12CC[C@@](Nc1cccc(Cl)c1)(C(=O)O)CC2 [Example 611, (1r,2′S,4S)-4-(3-chloroanilino)-2′-{(2R)-3-[(6,6-dimethyl-6,7-dihydro-5H-cyclopenta[b]pyridin-4-yl)oxy]-2-methylpropyl}-2′,3′-dihydrospiro[cyclohexane-1,1′-indene]-4-carboxylic acid] | 12.3 |  | 1670 | 
16 | C[C@@H](COc1ncnc2c1[C@H](C)CC2)CC1Cc2ccccc2[C@]12CC[C@@](Nc1cccc(Cl)c1)(C(=O)O)CC2 (stereo partly drawn) [Example 597, (1r,4R)-4-(3-chloroanilino)-2′-[(2R)-2-methyl-3-{[(5R)-5-methyl-6,7-dihydro-5H-cyclopenta[d]pyrimidin-4-yl]oxy}propyl]-2′,3′-dihydrospiro[cyclohexane-1,1′-indene]-4-carboxylic acid] | 5.36 |  | 1310 | 
17 | C[C@@H](COc1ccnc2c1[C@H]1CCC[C@H]1C2)C[C@H]1Cc2ccccc2[C@]12CC[C@@](Nc1cccc(Cl)c1)(C(=O)O)CC2 (single isomer, unassigned) [Example 621, (1r,2′S,4S)-4-(3-chloroanilino)-2′-[(2R)-3-{[(4bR*,7aR*)-4b,5,6,7,7a,8-hexahydropentaleno[2,1-b]pyridin-4-yl]oxy}-2-methylpropyl]-2′,3′-dihydrospiro[cyclohexane-1,1′-indene]-4-carboxylic acid] | 37.6 |  |  | 2520
18 | O=C(O)[C@]1(Nc2cccc(Cl)c2)CC[C@]2(CC1)C(Br)=Cc1ccccc12 [Example 75, (1s,4s)-2′-bromo-4-(3-chloroanilino)spiro[cyclohexane-1,1′-indene]-4-carboxylic acid] |  | 119 | 30000 | 
19 | C[C@@H](COc1ccnc2c1CCC2O)C[C@H]1Cc2ccccc2[C@]12CC[C@@](Nc1cccc(Cl)c1)(C(=O)O)CC2 (single isomer, unassigned) [Example 608] | 1.62 |  | 792 | 
20 | COCC(COc1ccnc2c1CCC2)CC1Cc2ccccc2[C@]12CC[C@@](Nc1cccc(Cl)c1)(C(=O)O)CC2 (some centres unmarked) [Example 494, (1r,4r)-4-(3-chloroanilino)-2′-(2-{[(6,7-dihydro-5H-cyclopenta[b]pyridin-4-yl)oxy]methyl}-3-methoxypropyl)-2′,3′-dihydrospiro[cyclohexane-1,1′-indene]-4-carboxylic acid] | 3.62 |  | 808 | 
21 | CC(CC1Cc2ccccc2[C@]12CC[C@@](Nc1cccc(Cl)c1)(C(=O)O)CC2)C1CCC(=O)CC1 (single isomer, unassigned) [Example 571, (1r,4r)-4-(3-chloroanilino)-2′-[2-(4-oxocyclohexyl)propyl]-2′,3′-dihydrospiro[cyclohexane-1,1′-indene]-4-carboxylic acid] | 107 |  |  | 30000
22 | CC[C@@H]1CCc2nccc(OC[C@H](C)C[C@H]3Cc4ccccc4[C@]34CC[C@@](Nc3cccc(Cl)c3)(C(=O)O)CC4)c21 [Example 612, (1r,2′S,4S)-4-(3-chloroanilino)-2′-[(2R)-3-{[(5R)-5-ethyl-6,7-dihydro-5H-cyclopenta[b]pyridin-4-yl]oxy}-2-methylpropyl]-2′,3′-dihydrospiro[cyclohexane-1,1′-indene]-4-carboxylic acid] | 0.565 |  | 315 | 
